From patent publication US8592403B2, “Diazepine and diazocane compounds as MC4 agonists” (Pfizer Limited, priority 2008, dated 2013) come the findings set out here.

The target in one data set is MC4 receptor (Homo sapiens, UniProt P32245). As to the kind of experiment: MC4 EC50 functional potency (protocol E of US2005/0176772 / WO 2005/077935). The format is cell-based. On the procedure: The compounds of formula (I) of the present invention have utility as MCR4 agonists in the treatment of various disease states.
MC5 and MC4 EC50 activity was determined as described by assay protocols D and E, respectively, in US2005/0176772 (pages 28-30).

The next data set has as its target T1, human MC3 receptors (Homo sapiens, UniProt P41968).
T1 construct: stably transfected with full length cDNA encoding human MC1 or MC3 receptors; expressed in transfected cells
In words: In vitro agonist potency (EC50) at melanocortin receptor type 3, cAMP in recombinant cell line. The format is cell-based. How it is done: Measurement of In Vitro Agonist Potency (EC50) of Compounds Against Melanocortin Receptors Type 1 and 3 (MC1 and MC3).
Activation of melanocortin (MC) receptors by agonists results in activation of intracellular adenylate cyclase enzymes that synthesise the second messenger signalling molecule, adenosine 3′,5′-cyclic monophosphate (cAMP). Changes in cAMP levels following treatment of recombinant MC1 and MC3 cell lines with test compound were measured and an MC1 and MC3 potency estimate (EC50) calculated as follows: […]
Human embryonic kidney (HEK) or Chinese hamster ovary cell lines stably transfected with full length cDNA encoding human MC1 or MC3 receptors, respectively, were established using standard molecular biology methods. Test compounds were dissolved in dimethyl sulfoxide (DMSO) at 4 mM. 11 point half log unit increment dilution series of test compound, typically starting at 50 uM were prepared in a buffer comprised of phosphate buffered saline (PBS), 2.5% DMSO and 0.05% pluronic F-127 surfactant. Freshly cultured cells at 80-90% confluence were harvested and re-suspended in Dulbecco's Modified Eagle's Medium (DMEM). Cells (10,000 for MC3, 20,000 for MC1) were added to the test compound dilution series in a 384 well assay plate and incubated for 1 hour at 37° C. The relative cAMP concentration in each well was then measured using a β-galactosidase enzyme fragment complementation method purchased in kit form as the Discoverx cAMP II kit from GE Healthcare/Amersham Biosciences UK. In the case of MC1,3-Isobutyl-1-methylxanthine (IBMX) at a concentration of 750 μM was included in DMEM as the cells were re-suspended for assay. […] Sigmoidal curves were fitted to plots of log10 inhibitor concentration vs percent effect using a custom made software application called SIGHTS and EC50 estimates determined by the software as the concentration of test compound giving an effect half way between the bottom and top asymptotes of the sigmoidal dose response curve. Each experiment included an EC50 determination for alpha melanocyte stimulating hormone, which was used as a standard to track assay consistency and allow fair comparison between EC50 estimates obtained in different experiments.

A further data set has as its target T2, MC4 receptor (MC4R) (Homo sapiens, UniProt P32245).
T2 construct: expressed in transfected cells; host or cells: CHO-CRE MC4R cells (membranes)
As to the kind of experiment: Nle4, D-Phe7-α-MSH inhibition at the MC4 receptor (competition binding, SPA, CHO-CRE MC4R membranes). The essentials:
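Competition binding by SPA used CHO-CRE MC4R membranes on WGA beads (0.15 ug membrane/well) with 0.06 nM [125I] Nle4, D-Phe7-α-MSH and 11 half-log competitor concentrations in duplicate. Buffer was 25 mM HEPES pH 7 with MgCl2, CaCl2, Pluronic F68 and protease inhibitors; incubation was 12 hours at room temperature. Non-specific binding was set with 100 nM SHU9119, and Ki was calculated.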

The next data set addresses T3, CYP3A4 (Homo sapiens, UniProt P08684).
T3 construct: utilizes human liver microsomes together with isoform-specific clinical drug probes; from tissue; host or cells: human liver microsomes
In words: High density DDI 3 μM cocktail screen in human liver microsomes, midazolam probe. It is filed as in vitro ADME. Particulars: human, liver microsomes, probe midazolam, read-out: % inhibition 3A4 @ 3 μM. The essentials:
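Pooled human liver microsomes incubated with isoform-specific clinical probe substrates as a cocktail (midazolam for CYP3A4), with or without test compound at 3 μM. Metabolite formation followed over time by LC-MS/MS. Inhibition expressed as a single-point percentage.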
On the technique in general: Liver microsomes are a subcellular fraction often used to study metabolism.

Chain of MC4 receptor (P32245 whole entry): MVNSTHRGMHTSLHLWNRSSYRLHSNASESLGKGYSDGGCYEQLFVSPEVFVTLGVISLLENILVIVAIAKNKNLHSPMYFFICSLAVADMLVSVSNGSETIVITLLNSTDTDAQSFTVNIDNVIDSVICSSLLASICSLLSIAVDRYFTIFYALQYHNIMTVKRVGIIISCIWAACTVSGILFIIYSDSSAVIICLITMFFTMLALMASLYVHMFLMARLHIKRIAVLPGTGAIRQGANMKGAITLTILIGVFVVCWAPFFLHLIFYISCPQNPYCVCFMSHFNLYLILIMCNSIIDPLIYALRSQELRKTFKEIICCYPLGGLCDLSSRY
T2 sequence (P32245 whole entry): as above
T1 sequence (P41968 whole entry): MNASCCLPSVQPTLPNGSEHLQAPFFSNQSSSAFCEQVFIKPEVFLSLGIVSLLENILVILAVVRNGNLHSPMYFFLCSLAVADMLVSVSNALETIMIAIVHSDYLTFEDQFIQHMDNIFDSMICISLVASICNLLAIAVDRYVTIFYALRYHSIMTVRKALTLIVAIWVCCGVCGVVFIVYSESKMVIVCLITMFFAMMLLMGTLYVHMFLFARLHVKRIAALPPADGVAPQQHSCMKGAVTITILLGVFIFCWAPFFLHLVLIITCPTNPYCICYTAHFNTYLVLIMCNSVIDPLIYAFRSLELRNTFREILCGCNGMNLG
T3 sequence (P08684 whole entry, canonical isoform): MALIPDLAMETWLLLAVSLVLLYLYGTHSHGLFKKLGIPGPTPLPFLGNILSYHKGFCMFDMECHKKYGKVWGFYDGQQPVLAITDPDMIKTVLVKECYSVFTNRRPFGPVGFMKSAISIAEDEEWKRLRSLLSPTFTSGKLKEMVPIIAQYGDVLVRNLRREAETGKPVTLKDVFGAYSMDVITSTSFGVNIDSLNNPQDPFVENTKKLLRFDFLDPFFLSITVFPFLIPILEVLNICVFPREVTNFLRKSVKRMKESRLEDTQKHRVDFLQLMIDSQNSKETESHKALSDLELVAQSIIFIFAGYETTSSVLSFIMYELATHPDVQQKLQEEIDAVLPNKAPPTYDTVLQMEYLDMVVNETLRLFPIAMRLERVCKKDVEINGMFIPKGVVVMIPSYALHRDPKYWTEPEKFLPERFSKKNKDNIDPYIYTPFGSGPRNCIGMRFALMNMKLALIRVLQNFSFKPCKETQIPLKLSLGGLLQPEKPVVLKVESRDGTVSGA

The term EC50 denotes the concentration giving half of the maximal effect. As a reminder, the Ki is the dissociation constant of the complex between target and ligand, obtained from inhibition or displacement. A higher Ki goes with weaker binding. As a reminder, the inhibition is the change of the read-out against control, counted positive when it falls. As for `CC(C)(C)C(=O)N1CCN(C(=O)[C@@H]2CN(C(C)(C)C)C[C@H]2c2ccc(F)cc2F)CCC[C@H]1c1ccc(Cl)cc1` [Example 15], the results for the EC50 on MC4 receptor and on human MC3 receptors were 10.6 nM and 3180 nM, respectively. The Ki on MC4 receptor (MC4R) was 144 nM. Moreover, at CYP3A4, the inhibition at 3 µM is 64.4%.
As for `COC(=O)N1CCN(C(=O)[C@@H]2CN(c3ccc(=O)n(C)n3)C[C@H]2c2ccc(F)cc2F)CCC[C@@H]1c1ccc(Cl)cc1` [Example 56], the EC50 at MC4 receptor stood at 2.99 nM; on human MC3 receptors, 1220 nM. Also, the inhibitory constant (Ki) on MC4 receptor (MC4R) amounted to 71.1 nM. Further, the inhibition at 3 µM at CYP3A4 was 54.2%.
The matching figures for `CS(=O)(=O)N1CCN(C(=O)C2CN(c3ccc(=O)[nH]n3)CC2c2ccc(F)cc2F)CCCC1c1ccc(F)cc1` (stereo not drawn) [Example 78]: 40.3 nM, 3320 nM, 303 nM and 49%.
